Experimental findings from paper PMC12476087, “Loading of Dicarboxylatoplatinum(II)‐NHC Complexes in Bacterial Ghosts as an Advanced Development in Cancer Therapy” (Archiv Der Pharmazie, 2025) are described below.

For series [1], the system named is A2780wt cells. The series can be described thus: MTT assay, A2780wt cells. It is filed as cell-based. As to conditions: for IC50: MTT assay, 72 h exposure. On the procedure: (§1) Carboplatin, a second‐generation platinum drug commonly used as part of standard first‐line chemotherapy for ovarian carcinoma, was examined as a reference compound due to its clinical relevance. Additionally, the nonmalignant bone marrow stromal cell line HS‐5 was included as a control to assess specificity of the complexes toward cancer cells.
(§2) Unloaded BGs (4 × 10^8 EcN or 2 × 10^8 Ec NM522, which is equivalent to the highest tested BG concentration) were tested as controls.
(§3) The exponentially growing cells were seeded at a density of 8 × 10^3 cells/well (A2780wt/cis) or 1 × 10^4 cells/well (HS‐5), respectively, into clear flat‐bottom 96‐well plates in triplicates. […] After another 72 h of incubation, the cellular metabolic activity was measured as an indicator of cell viability employing an MTT assay. Hereby, 20 µL of a 5 mg/mL MTT solution was added to each well, respectively. After 3 h of incubation, the medium was discarded, and the formazan crystals formed were dissolved in DMSO for 15 min with gentle shaking. […] The OD at 620 nm was subtracted from the OD at 595 nm. The OD of the medium was subtracted to exclude the unspecific staining caused by FCS‐containing medium. Cells treated with vehicle control (0.1% DMF) only were set at 100% metabolic activity. The IC50 values were calculated with Prism 8.0 (GraphPad Software Inc., Boston, MA, USA) using nonlinear regression. Significance was evaluated via a one sample t‐test performed with Prism 8.0.

The test system of series [2] is surface calreticulin on A2780cis cells. Put plainly: Immunofluorescent surface calreticulin staining, A2780cis. It is filed as cell-based. Particulars: w/o BGs, 25 µM, 24 h. The protocol:
(§4) Oxaliplatin, a known metal‐based ICD inducer, was included for comparison.
(§5) A2780wt or A2780cis cells were seeded at a density of 1.2 × 10^5 on cover slips and allowed to adhere for 24 h. […] Subsequently, the cells were washed again three times with PBS and they were incubated after adding the secondary antibody (Alexa‐Fluor‐conjugated anti‐rabbit, 1:200), for 45 min at rt. Subsequently, the cells were washed again three times with PBS and they were mounted on slides with mounting medium. After letting them dry overnight, visualization was performed by spinning disk confocal microscopy. […] Acquired images were background subtracted, individual cells were manually segmented, and fluorescence intensity for the calreticulin staining was quantified with a FIJI software. Two repetitions of the experiment were performed, where at least 20 cells per condition were analyzed and the mean intensity of each sample was calculated, respectively.

Series [3] deals with A2780wt cells. The series can be described thus: Cellular platinum accumulation (HR CS AAS). It counts as cell-based. As to conditions: free complex, 25 µM, 24 h. The protocol: Stock solutions of the platinum complexes in DMF were freshly prepared and the stocks for the loaded compounds were freshly thawed. […] Cell pellets were prepared by removing the medium, washing twice with PBS, and detaching the cells with accutase (GE Healthcare, Chicago, IL, USA). Subsequently, cells were pelleted by centrifugation (4°C, 380g, 3 min). Each pellet was twice washed with PBS and then stored at −20°C until further analyses.
Cellular accumulation was quantified by measuring the total platinum content using HR CS AAS. […] The resulting lysates were analyzed using AAS at the wavelength λ = 265.9450 nm with a high resolution continuous source (HR CS) spectrometer (contrAA 700; Analytik Jena, Jena, Germany). The ASpect CS software (version 2.3.1.0; Analytik Jena, Jena, Germany) was used to handle the spectrometer. The graphite furnace (GF) sub‐technique was used for this. In the latter, atomization takes place electrothermally in pyrolytically coated graphite tubes bearing an integrated platform (Analytik Jena, Jena, Germany). The GF program is outlined in Supporting Information S2: Table S8. The samples stored in polystyrene vials (0.5 mL; Gesellschaft für Analysentechnik, Salzwedel, Germany) were injected onto this platform employing an MPE 60 autosampler (Analytik Jena, Jena, Germany). As the purge and the protective gas served argon (Alphagaz 1, 99.999%, Air Liquide, Düsseldorf, Germany). The mean integrated absorbance of three injections was adduced during all measurements. […] As the degree of cellular accumulation is indicated as amount of compound (pmol) in the cell lysate relative to its protein mass (mg), the protein content of each sample was determined. Therefore, the method described by Bradford was used. […] Each 20 µL of either albumin standards or the cell lysates were pipetted into a 96‐well plate (Sarstedt, Nürmbrecht, Germany), followed by adding 200 µL of Bradford's reagent (Roti‐Nanoquant, Carl Roth, Karlsruhe, Germany; diluted 1:5 with ultrapure water). After incubating (5 min, rt), the absorbance (λ = 595 nm) was read with a microplate reader (Tecan Infinite M 1000 Pro, Männedorf, Switzerland). All calibration standards and lysates were measured in duplicates.

The nature of a further series: Water solubility. It is filed as physicochemical.
Series [4] relates to surface calreticulin on A2780wt cells. Put plainly: Immunofluorescent surface calreticulin staining, A2780wt. It counts as cell-based. Particulars: w/o BGs, 25 µM, 24 h. The protocol:
as §4, §5

In series [5] the test system is A2780cis cells. The series can be described thus: Annexin V/PI staining and FACS analysis, A2780cis. It counts as cell-based. As to conditions: w/o BGs, 25 µM, 24 h; for late apoptosis/ necrosis: Annexin V positive/PI positive; for early apoptosis: percentage of cells (Annexin V positive/PI negative). The protocol:
Therefore, we aimed to evaluate the apoptosis and necrosis inducing potential of complexes 1–4 via a fluorescent‐activated cell sorting (FACS) analysis with Annexin V/propidium iodide (PI) staining in A2780wt and A2780cis cells. Cells were treated for 24 h with both the free and BG‐loaded forms of each compound at 25 µM. Carboplatin (50 µM) served as a reference.
To evaluate the mode of cell death, a FACS measurement after staining with Annexin V and PI was conducted. First, 0.3 × 10^6 A2780wt or A2780cis cells were seeded into 12‐well plates and were allowed to adhere for 24 h. The compounds were added at 25 µM, either diluted from a freshly prepared DMF stock solution (0.1% DMF) or freshly thawed when loaded in BGs. After 24 h of incubation, the cells were harvested with accutase and washed with PBS. The cells were then resuspended in 200 µL of PBS each and 1 µL of PI solution (Sigma‐Aldrich, Taufkirchen, Germany) and 1 µL of Annexin V‐FITC (MabTag GmbH, Friesoythe, Germany) were added to each sample. These were then incubated for 20 min at rt under light‐protected conditions and afterward transferred onto ice. The percentage of apoptotic cells was determined by analyzing Annexin V positive /PI negative cells using a BD LSRFortessa flow cytometer and BD FACSDiva software (both BD Biosciences, San Jose, CA, USA). The apoptosis analysis included the evaluation of early apoptosis (Annexin V positive/PI negative) and late apoptosis/necrosis (Annexin V positive /PI positive).

Series [6] relates to A2780cis cells. The series can be described thus: MTT assay, A2780cis cells. It counts as cell-based. As to conditions: for Resistance factor RF = IC50(A2780cis)/IC50(A2780wt): 72 h; for IC50: 72 h exposure. On the procedure: as §1, §2, §3
For orientation: Tetrazolium assays rely on reduction of a dye to a coloured formazan, in cell work by metabolically active cells.

“(SP‐4‐2)‐Bis(dichloroacetato)bis(1,3‐diethylbenzimidazol‐2‐ylidene)platinum(II) [Compound 4]”: in the series on A2780wt cells [1], the IC50 came to 37.9 ± 1.58 µM. Besides, in series [2], the “x‐fold intensity of surface calreticulin compared to untreated cells” value (“x‐fold intensity of surface calreticulin” below) stood at 1.13 ± 0.36 x‐fold. Further, the “uptake into A2780wt cells (total cellular platinum content)” value (“uptake into A2780wt cells” for short) in the series on A2780wt cells [3] is reported as 1.87 pmol/µg. For the same compound, in the series “Water solubility”, the water solubility was below 500 µg/mL. The “x‐fold intensity of surface calreticulin” value in series [4] was found to be 1.37 ± 0.24 x‐fold. For the same compound, in the series with A2780cis cells [5], the late apoptosis/ necrosis turned out to be 18.1 ± 1.46 and the early apoptosis is recorded as 22.9 ± 1.67. In addition, in the series with A2780cis cells [6], the “Resistance factor RF = IC50(A2780cis)/IC50(A2780wt)” value is on record as 0.9 and inhibition was half-maximal at 34.9 ± 1.7 µM (IC50).
On to `CCN1[C]([Pt]([O]C(=O)C(Cl)Cl)([O]C(=O)C(Cl)Cl)[SH](C)(C)=O)N(CC)c2ccccc21` [Compound 3, (SP‐4‐2)‐Bis(dichloroacetato)(1,3‐diethylbenzimidazol‐2‐ylidene)(dimethylsulfoxide)platinum(II)], for which the IC50 in the series on A2780wt cells [1] worked out at 58.9 ± 2.05 µM; with A2780cis cells [6], 83.1 ± 4.79 µM. The “x‐fold intensity of surface calreticulin” value was found to be 0.75 ± 0.28 x‐fold in series [2] and 1.50 ± 0.17 x‐fold in series [4]. Moreover, in the series on A2780wt cells [3], the “uptake into A2780wt cells” value was 1.17 pmol/µg. In the series “Water solubility”, this compound showed a water solubility below 500 µg/mL. Besides, in the series with A2780cis cells [5], the late apoptosis/ necrosis came out at 10.6 ± 0.95. This compound had an early apoptosis with A2780cis cells [5] of 11.4 ± 1.82.
With `CCN1[C]([Pt]([O]C(C)=O)([O]C(C)=O)[SH](C)(C)=O)N(CC)c2ccccc21` [Compound 1, (SP‐4‐2)‐Diacetato(1,3‐diethylbenzimidazol‐2‐ylidene)(dimethylsulfoxide)platinum(II)], the IC50 in the series on A2780wt cells [1] was 31.1 ± 2.39 µM. In addition, the “metabolic activity of A2780wt cells” value with A2780wt cells [1] (free (non‐loaded) compound, 25 µM, 72 h) amounted to 85%. Further, the “x‐fold intensity of surface calreticulin” value in series [2] was 1.18 ± 0.37 x‐fold. Further, the “uptake into A2780wt cells” value with A2780wt cells [3] is reported as 1.1 pmol/µg. Further, the water solubility entry in the series “Water solubility” is listed as “approximately 10 mg/mL”. In series [4], the “x‐fold intensity of surface calreticulin” value was found to be 1.09 ± 0.00 x‐fold. Also, in the series with A2780cis cells [5], the late apoptosis/ necrosis stood at 15.0 ± 1.65 and the early apoptosis is 21.3 ± 1.18. Further, in the series with A2780cis cells [6], the “Resistance factor RF = IC50(A2780cis)/IC50(A2780wt)” value amounted to 1.2 and the IC50 is 36.5 ± 2.85 µM.
For the compound “(SP‐4‐2)‐Diacetatobis(1,3‐diethylbenzimidazol‐2‐ylidene)platinum(II) [Compound 2]”, the results for the IC50 with A2780wt cells [1] and in the series with A2780cis cells [6] were 40.8 ± 2.34 µM and 39.3 ± 2.8 µM, respectively. Besides, the “x‐fold intensity of surface calreticulin” value in series [2] is recorded as 1.02 ± 0.05 x‐fold; in series [4] it was 1.07 ± 0.12 x‐fold. Moreover, the “uptake into A2780wt cells” value in the series with A2780wt cells [3] was determined as 0.82 pmol/µg. Further, in “Water solubility”, the water solubility result is “around 3 mg/mL”. In the series on A2780cis cells [5], the late apoptosis/ necrosis came out at 10.0 ± 1.77. For the same compound, the early apoptosis in the series on A2780cis cells [5] was determined as 6.37 ± 1.17. For the same compound, the “Resistance factor RF = IC50(A2780cis)/IC50(A2780wt)” value with A2780cis cells [6] was 1.0.

One may read the IC50 as the concentration needed to halve the response being measured.
